Structures are written as SMILES. pIC50: −log10 of the molar value. Like-named read-outs stand apart in the source and are kept apart here.

Test [1] has as its target T1, human Nav1.5 channels stably expressed in HEK 293 cells (Homo sapiens, UniProt Q14524).
T1 construct: expressed in transfected cells
The experiment in a line: PatchXpress 7000 automated patch-clamp, sodium current. The test is classed as cell-based. As to conditions: selectivity over Nav1.5. The method, boiled down: (§1)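 IC50 values came from Hill-equation fits of rundown-corrected inhibition. PatchXpress recordings at 22° C held cells 20 mV negative to V0.5 inact and applied 10 Hz trains of 30 ms steps to −20 mV (Nav1.7) or an 8000 ms prepulse 7 mV positive to V0.5 inact. […]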

Test [2] deals with T2, human Nav1.7 channels stably expressed in HEK 293 cells (Homo sapiens, UniProt Q15858).
T2 construct: expressed in transfected cells
T2 sequence (Q15858 whole entry): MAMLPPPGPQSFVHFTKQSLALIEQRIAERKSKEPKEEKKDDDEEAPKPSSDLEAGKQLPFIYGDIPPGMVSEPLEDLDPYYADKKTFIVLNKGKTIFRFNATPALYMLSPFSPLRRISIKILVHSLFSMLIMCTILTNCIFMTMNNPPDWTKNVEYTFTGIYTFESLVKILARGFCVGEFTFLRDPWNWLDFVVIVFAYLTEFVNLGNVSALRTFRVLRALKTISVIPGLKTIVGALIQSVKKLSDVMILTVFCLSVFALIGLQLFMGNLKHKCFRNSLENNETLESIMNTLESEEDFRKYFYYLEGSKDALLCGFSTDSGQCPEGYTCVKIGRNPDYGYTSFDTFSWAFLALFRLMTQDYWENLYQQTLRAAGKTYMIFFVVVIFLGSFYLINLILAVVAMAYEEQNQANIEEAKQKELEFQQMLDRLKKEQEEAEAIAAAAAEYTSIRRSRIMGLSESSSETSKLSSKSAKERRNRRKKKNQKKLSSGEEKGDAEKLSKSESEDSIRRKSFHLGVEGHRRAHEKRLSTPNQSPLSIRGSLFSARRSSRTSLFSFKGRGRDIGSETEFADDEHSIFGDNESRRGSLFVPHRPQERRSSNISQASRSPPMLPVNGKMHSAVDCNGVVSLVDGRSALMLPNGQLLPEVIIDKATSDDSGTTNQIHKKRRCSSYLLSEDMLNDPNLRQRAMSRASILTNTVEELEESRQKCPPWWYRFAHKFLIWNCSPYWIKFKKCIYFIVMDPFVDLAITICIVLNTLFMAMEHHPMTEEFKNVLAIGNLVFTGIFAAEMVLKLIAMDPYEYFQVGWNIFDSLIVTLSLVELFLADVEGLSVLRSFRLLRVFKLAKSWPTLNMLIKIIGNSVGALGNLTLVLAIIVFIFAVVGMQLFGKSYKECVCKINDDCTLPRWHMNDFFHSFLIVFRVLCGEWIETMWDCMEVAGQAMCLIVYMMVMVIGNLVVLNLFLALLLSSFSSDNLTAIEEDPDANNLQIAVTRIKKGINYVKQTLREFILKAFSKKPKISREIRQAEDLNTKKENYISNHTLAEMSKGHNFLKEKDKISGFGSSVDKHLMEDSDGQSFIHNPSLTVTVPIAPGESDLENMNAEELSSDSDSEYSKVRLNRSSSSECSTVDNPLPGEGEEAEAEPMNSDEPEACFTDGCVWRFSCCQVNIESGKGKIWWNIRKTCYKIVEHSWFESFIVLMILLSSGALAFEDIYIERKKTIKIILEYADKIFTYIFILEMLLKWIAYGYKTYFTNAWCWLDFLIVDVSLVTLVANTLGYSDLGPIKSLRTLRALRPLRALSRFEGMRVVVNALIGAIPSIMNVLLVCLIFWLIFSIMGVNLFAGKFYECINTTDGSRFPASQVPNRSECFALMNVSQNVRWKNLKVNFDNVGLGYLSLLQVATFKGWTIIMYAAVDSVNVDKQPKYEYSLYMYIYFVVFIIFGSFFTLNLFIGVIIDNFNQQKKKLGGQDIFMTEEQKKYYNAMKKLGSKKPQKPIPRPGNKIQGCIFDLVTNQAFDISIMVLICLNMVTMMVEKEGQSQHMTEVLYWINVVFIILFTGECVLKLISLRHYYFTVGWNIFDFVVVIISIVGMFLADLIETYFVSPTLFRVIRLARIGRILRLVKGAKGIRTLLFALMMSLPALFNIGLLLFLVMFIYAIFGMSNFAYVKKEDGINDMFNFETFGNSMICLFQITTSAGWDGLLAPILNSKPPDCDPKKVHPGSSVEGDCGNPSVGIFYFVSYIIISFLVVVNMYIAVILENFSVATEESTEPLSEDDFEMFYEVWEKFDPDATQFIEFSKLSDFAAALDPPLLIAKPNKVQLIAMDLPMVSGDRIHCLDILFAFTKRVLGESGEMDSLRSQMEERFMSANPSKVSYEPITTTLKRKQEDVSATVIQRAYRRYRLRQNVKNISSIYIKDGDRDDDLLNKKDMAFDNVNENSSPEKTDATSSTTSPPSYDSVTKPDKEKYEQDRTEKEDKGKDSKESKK
Described as above. To be noted: 22° C. The test is classed as cell-based. An outline of the steps: as §1

[3] abbreviates: read-out: potency for the Nav 1.7 sodium ion channel (as measured by PatchXpress).

T1 sequence (Q14524 whole entry): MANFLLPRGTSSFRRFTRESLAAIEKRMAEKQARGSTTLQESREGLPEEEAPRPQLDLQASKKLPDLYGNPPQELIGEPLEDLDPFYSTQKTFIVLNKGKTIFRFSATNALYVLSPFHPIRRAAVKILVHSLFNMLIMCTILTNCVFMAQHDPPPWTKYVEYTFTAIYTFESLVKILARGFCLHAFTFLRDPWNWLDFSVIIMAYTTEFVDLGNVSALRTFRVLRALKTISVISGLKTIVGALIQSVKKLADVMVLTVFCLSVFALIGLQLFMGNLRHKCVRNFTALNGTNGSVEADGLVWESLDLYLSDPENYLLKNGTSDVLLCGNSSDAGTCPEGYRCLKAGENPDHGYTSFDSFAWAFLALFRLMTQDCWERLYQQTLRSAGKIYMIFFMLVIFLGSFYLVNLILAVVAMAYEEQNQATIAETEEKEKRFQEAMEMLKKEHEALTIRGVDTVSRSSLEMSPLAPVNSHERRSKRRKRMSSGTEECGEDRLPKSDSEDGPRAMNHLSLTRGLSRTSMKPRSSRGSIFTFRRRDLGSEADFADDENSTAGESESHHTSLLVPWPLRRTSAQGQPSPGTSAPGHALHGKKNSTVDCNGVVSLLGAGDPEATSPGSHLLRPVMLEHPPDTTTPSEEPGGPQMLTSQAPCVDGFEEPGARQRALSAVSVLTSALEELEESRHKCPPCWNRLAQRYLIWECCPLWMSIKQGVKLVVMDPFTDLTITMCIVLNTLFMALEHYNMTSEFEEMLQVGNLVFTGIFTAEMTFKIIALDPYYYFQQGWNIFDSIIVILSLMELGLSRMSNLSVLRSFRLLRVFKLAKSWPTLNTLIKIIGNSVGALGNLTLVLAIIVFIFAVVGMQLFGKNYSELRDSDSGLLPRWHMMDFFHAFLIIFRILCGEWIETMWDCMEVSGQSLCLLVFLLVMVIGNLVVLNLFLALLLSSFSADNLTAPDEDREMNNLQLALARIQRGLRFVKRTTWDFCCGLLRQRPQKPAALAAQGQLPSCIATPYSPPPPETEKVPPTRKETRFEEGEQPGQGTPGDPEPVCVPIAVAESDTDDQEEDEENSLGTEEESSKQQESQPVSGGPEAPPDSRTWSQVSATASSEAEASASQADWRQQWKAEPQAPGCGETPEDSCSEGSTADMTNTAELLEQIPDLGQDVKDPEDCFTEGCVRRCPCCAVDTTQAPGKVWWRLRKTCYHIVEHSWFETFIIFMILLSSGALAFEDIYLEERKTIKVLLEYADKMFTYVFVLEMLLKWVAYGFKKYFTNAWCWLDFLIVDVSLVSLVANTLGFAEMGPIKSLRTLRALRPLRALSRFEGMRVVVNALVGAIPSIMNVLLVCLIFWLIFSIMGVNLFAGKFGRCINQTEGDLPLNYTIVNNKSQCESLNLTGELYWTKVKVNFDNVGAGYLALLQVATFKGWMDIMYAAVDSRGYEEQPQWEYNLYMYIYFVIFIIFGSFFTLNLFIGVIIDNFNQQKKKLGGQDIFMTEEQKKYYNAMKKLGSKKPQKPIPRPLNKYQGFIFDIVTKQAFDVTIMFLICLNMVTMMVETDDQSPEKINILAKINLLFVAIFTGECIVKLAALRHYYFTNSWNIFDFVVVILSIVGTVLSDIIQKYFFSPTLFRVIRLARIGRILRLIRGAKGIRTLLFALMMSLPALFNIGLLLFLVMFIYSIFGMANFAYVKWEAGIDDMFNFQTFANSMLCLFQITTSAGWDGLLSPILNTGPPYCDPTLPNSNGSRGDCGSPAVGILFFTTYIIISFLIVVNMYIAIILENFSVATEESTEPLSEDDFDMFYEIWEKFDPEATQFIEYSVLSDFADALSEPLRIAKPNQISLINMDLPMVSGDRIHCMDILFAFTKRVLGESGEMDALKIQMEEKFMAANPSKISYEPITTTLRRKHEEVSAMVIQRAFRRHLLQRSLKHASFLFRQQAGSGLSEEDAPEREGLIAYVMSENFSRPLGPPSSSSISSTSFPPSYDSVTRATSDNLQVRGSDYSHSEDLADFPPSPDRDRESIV

Turning to `C[C@H](c1ccccc1I)n1c(=O)oc2cc(S(=O)(=O)Nc3ncns3)c(F)cc21` [Compound 16-3, (R)-5-Fluoro-3-(1-(2-iodophenyl)ethyl)-2-oxo-N-(1,2,4-thiadiazol-5-yl)-2,3-dihydrobenzo[d]oxazole-6-sulfonamide], the “ratio of Nav 1.5:Nav 1.7 potency, determined by PatchXpress measurement” value (shortened to “ratio of Nav 1.5:Nav 1.7 potency”) in test [1] came to 272. For the same compound, the pIC50 in test [2] (setting [3]) was 7.16.
As to `C[C@H](c1ccccc1C1=CCNCC1)n1c(=O)oc2cc(S(=O)(=O)Nc3ncns3)c(F)cc21` [Compound 16-4, (R)-5-Fluoro-2-oxo-3-(1-(2-(1,2,3,6-tetrahydropyridin-4-yl)phenyl)ethyl)-N-(1,2,4-thiadiazol-5-yl)-2,3-dihydrobenzo[d]oxazole-6-sulfonamide], the “ratio of Nav 1.5:Nav 1.7 potency” value in test [1] is 296. Further, the pIC50 in test [2] (potency for the Nav 1.7 sodium ion channel (as measured by PatchXpress)) is 7.55.
With `C[C@H](c1ccccc1C1=CCCNC1)n1c(=O)oc2cc(S(=O)(=O)Nc3ncns3)c(F)cc21` [Compound 16-5, 5-fluoro-2-oxo-3-{(1R)-1-[2-(1,2,5,6-tetrahydropyridin-3-yl)phenyl]ethyl}-N-1,2,4-thiadiazol-5-yl-2,3-dihydro-1,3-benzoxazole-6-sulfonamide], the “ratio of Nav 1.5:Nav 1.7 potency” value in test [1] was found to be 646. Besides, the pIC50 in test [2] (setting [3]) was 7.34.
For `C[C@H](c1ccccc1C1=CCNCCC1)n1c(=O)oc2cc(S(=O)(=O)Nc3ncns3)c(F)cc21` [Compound 16-6, 5-fluoro-2-oxo-3-{(1R)-1-[2-(2,5,6,7-tetrahydro-1H-azepin-4-yl)phenyl]ethyl}-N-1,2,4-thiadiazol-5-yl-2,3-dihydro-1,3-benzoxazole-6-sulfonamide], in that order: 1692 and 7.74.
In the same order, the values of `C[C@H](c1ccccc1C#CC1(N)CC1)n1c(=O)oc2cc(S(=O)(=O)Nc3ncns3)c(F)cc21` [Compound 17-1, (R)-3-(1-(2-((1-aminocyclopropyl)ethynyl)phenyl)ethyl)-5-fluoro-2-oxo-N-(1,2,4-thiadiazol-5-yl)-2,3-dihydrobenzo[d]oxazole-6-sulfonamide] are 313 and 7.02.
Consider `C[C@H](c1ccccc1C#CCN1CCOCC1)n1c(=O)oc2cc(S(=O)(=O)Nc3ncns3)c(F)cc21` [Compound 17-2, 5-fluoro-3-{(1R)-1-[2-(3-morpholin-4-ylprop-1-yn-1-yl)phenyl]ethyl}-2-oxo-N-1,2,4-thiadiazol-5-yl-2,3-dihydro-1,3-benzoxazole-6-sulfonamide], for which, in test [1], the “ratio of Nav 1.5:Nav 1.7 potency” value was 90. In test [2] (setting [3]), the pIC50 is 6.48.
Take `C[C@H](c1ccccc1C#CC1(O)CCCC1)n1c(=O)oc2cc(S(=O)(=O)Nc3ncns3)c(F)cc21` [Compound 17-3, 5-fluoro-3-[(1R)-1-{2-[(1-hydroxycyclopentyl)ethynyl]phenyl}ethyl]-2-oxo-N-1,2,4-thiadiazol-5-yl-2,3-dihydro-1,3-benzoxazole-6-sulfonamide]: the “ratio of Nav 1.5:Nav 1.7 potency” value in test [1] came out at 97. For the same compound, the pIC50 in test [2] (setting [3]) was 6.76.
For `C[C@H](c1ccccc1C#CCCO)n1c(=O)oc2cc(S(=O)(=O)Nc3ncns3)c(F)cc21` [Compound 17-4, 5-fluoro-3-{(1R)-1-[2-(4-hydroxybut-1-yn-1-yl)phenyl]ethyl}-2-oxo-N-1,2,4-thiadiazol-5-yl-2,3-dihydro-1,3-benzoxazole-6-sulfonamide], in that order: 360 and 6.83.
In the same order, the values of `C[C@H](c1ccccc1C#CCN1CCS(=O)(=O)CC1)n1c(=O)oc2cc(S(=O)(=O)Nc3ncns3)c(F)cc21` [Compound 17-5, 3-[(1R)-1-{2-[3-(1,1-dioxidothiomorpholin-4-yl)prop-1-yn-1-yl]phenyl}ethyl)-5-fluoro-2-oxo-N-1,2,4-thiadiazol-5-yl-2,3-dihydro-1,3-benzoxazole-6-sulfonamide] are 246 and 6.91.
Regarding `CCC(O)(C#Cc1ccccc1[C@@H](C)n1c(=O)oc2cc(S(=O)(=O)Nc3ncns3)c(F)cc21)CC` [Compound 17-6, 3-{(1R)-1-[2-(3-ethyl-3-hydroxypent-1-yn-1-yl)phenyl]ethyl}-5-fluoro-2-oxo-N-1,2,4-thiadiazol-5-yl-2,3-dihydro-1,3-benzoxazole-6-sulfonamide], the “ratio of Nav 1.5:Nav 1.7 potency” value in test [1] stood at 91. Further, in test [2] (setting [3]), the pIC50 is 6.98.
For `C[C@H](c1ccccc1C#C[C@@H](C)O)n1c(=O)oc2cc(S(=O)(=O)Nc3ncns3)c(F)cc21` [Compound 17-7, 5-fluoro-3-[(1R)-1-{2-[(3R)-3-hydroxybut-1-yn-1-yl]phenyl}ethyl]-2-oxo-N-1,2,4-thiadiazol-5-yl-2,3-dihydro-1,3-benzoxazole-6-sulfonamide], in that order: 1257 and 7.11.
For `C[C@H](c1ccccc1C#Cc1cncn1C)n1c(=O)oc2cc(S(=O)(=O)Nc3ncns3)c(F)cc21` [Compound 17-8, 5-fluoro-3-[(1R)-1-{2-[(1-methyl-1H-imidazol-5-yl)ethynyl]phenyl}ethyl]-2-oxo-N-1,2,4-thiadiazol-5-yl-2,3-dihydro-1,3-benzoxazole-6-sulfonamide], in that order: 27 and 7.19.
On to `C[C@H](c1ccccc1C#CCO)n1c(=O)oc2cc(S(=O)(=O)Nc3ncns3)c(F)cc21` [Compound 17-9, 5-fluoro-3-{(1R)-1-[2-(3-hydroxyprop-1-yn-1-yl)phenyl]ethyl}-2-oxo-N-1,2,4-thiadiazol-5-yl-2,3-dihydro-1,3-benzoxazole-6-sulfonamide], for which the “ratio of Nav 1.5:Nav 1.7 potency” value in test [1] is recorded as 45. The pIC50 in test [2] (setting [3]) is 7.24.
Take `C[C@H](c1ccccc1C#CC(C)(C)N)n1c(=O)oc2cc(S(=O)(=O)Nc3ncns3)c(F)cc21` [Compound 17-10, 3-{(1R)-1-[2-(3-amino-3-methylbut-1-yn-1-yl)phenyl]ethyl}-5-fluoro-2-oxo-N-1,2,4-thiadiazol-5-yl-2,3-dihydro-1,3-benzoxazole-6-sulfonamide]: in test [1], the “ratio of Nav 1.5:Nav 1.7 potency” value was determined as 534. For the same compound, in test [2] (setting [3]), the pIC50 was 7.25.
For the compound `CNCC#Cc1ccccc1[C@@H](C)n1c(=O)oc2cc(S(=O)(=O)Nc3ncns3)c(F)cc21` [Compound 17-11, 5-fluoro-3-[(1R)-1-{2-[3-(methylamino)prop-1-yn-1-yl]phenyl}ethyl]-2-oxo-N-1,2,4-thiadiazol-5-yl-2,3-dihydro-1,3-benzoxazole-6-sulfonamide], the “ratio of Nav 1.5:Nav 1.7 potency” value in test [1] is 589. Moreover, the pIC50 in test [2] (setting [3]) is 7.29.
In the case of `C[C@H](O)C#Cc1ccccc1[C@@H](C)n1c(=O)oc2cc(S(=O)(=O)Nc3ncns3)c(F)cc21` [Compound 17-12, 5-fluoro-3-[(1R)-1-{2-[(3S)-3-hydroxybut-1-yn-1-yl]phenyl}ethyl]-2-oxo-N-1,2,4-thiadiazol-5-yl-2,3-dihydro-1,3-benzoxazole-6-sulfonamide], the “ratio of Nav 1.5:Nav 1.7 potency” value in test [1] amounted to 262. Moreover, the pIC50 in test [2] (setting [3]) was 7.43.

Source of the values: US9273040B2 (Merck Sharp & Dohme Corp., priority 2011, dated 2016).
